The values below come from patent US20250179047A1, “5-[7-(3,4-DIHYDRO-1H-ISOQUINOLINE-2-CARBONYL)-1,2,3,4 TETRAHYDROISOQUINOLIN-6-YL]-1H-PYRROLE-3-CARBOXAMIDE DERIVATIVES, PHARMACEUTICAL COMPOSITIONS CONTAINING THEM AND THEIR USES AS PRO-APOPTOTIC AGENTS” (LES LABORATOIRES SERVIER, priority 2022, published 2025).

The subject of one assay is KMS-12-PE Bcl-2 G101V. The experiment in a line: In vitro cytotoxicity CellTiter-Glo 48 h, KMS-12-PE Bcl-2 G101V. The assay is classed as cell-based. Particulars: for Ratio (G101V/WT): C50 KMS-12-PE Bcl-2 G101V over C50 KMS-12-PE Bcl-2 WT; for IC50: Homo sapiens, KMS-12-PE, 48 h, CellTiter-Glo, C50 = concentration needed to reach 50% of the cellular viability. The method, then: KMS-12-PE (ACC 606) were purchased from the Leibniz-Institute DSMZ (Braunschweig, Germany) and were grown at 37° C. in a humidified atmosphere with […] in media recommended by the suppliers. Lentiviral particles containing Bcl-2 wild type (also named “Bcl2 WT”) and Bcl-2 mutated on G101V (also named “Bcl2 G101V”) were cloned into pcLV-CMV-DEST-IRES-TagRFP. Lentiviral particles (1×106) were mixed with Polybrene at 8 µg/ml and transduced by spinoculation for 1 h at 32° C. and incubated overnight. After 8 days, TagRFP positive-cells were sorted by FACS. BCL2 expression was monitored by immunoblotting using anti-Flag and anti-BCL2 antibodies.
Cellular viability was monitored with the cell viability assay (CellTiter-Glo®) on KMS-12-PE WT and G101V cell lines. The CellTiter-Glo® (CTG) Luminescent Cell Viability Assay (from Promega) is a homogeneous method to determine the number of viable cells in culture based on quantitation of the ATP present, which signals the presence of metabolically active cells.
Dose response of compounds are performed with 10 mM stock solutions (DMSO), 11-points curve, in a 384-well compound plate. The assay plate is prepared by stamping 40 nL from compound dilution plate of all different concentrations (e.g. 10 mM to have final […] assay test) into a cell culture microplate, using Echo acoustic liquid handling (Labcyte, Beckman). 40 μl of cell solution is added and cells are incubated with compounds for 48 h at 37° C., 5% CO2. CTG was added to the cells (according to the manufacturer instructions) and luminescence intensity was recorded using the Pherastar plate reader (BMG).
This assay provides in vitro cellular potency of the tested Bcl-2 inhibitors, measuring the C50, defined as the concentration needed to reach 50% of the cellular viability.
(ATP-based viability assays read luminescence as a measure of living cells.)

For another assay, the target named is BCL2 WT (Homo sapiens (Human), UniProt P10415). The experiment in a line: TR-FRET competitive binding assay, BCL2 WT. Particulars: Ki determined from IC50, read-out: TR_FRET EKI_Bcl2 WT. Summed up:
(§1)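 Ki derived from IC50 (11-point dilution, 520/495 nm emission ratio) for displacing a fluorescein-labelled PUMA peptide (2 or 20 nM). Target was 0.5 nM E. coli-expressed Halo-tagged BCL2 (1-207) or BCLXL (2-196), terbium-labelled on Halo. Incubation 2 h at 23°C in pH 7.5 Hepes with 150 mM NaCl and 5% DMSO.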
A general note: Time-resolved FRET reads energy transfer from a long-lived donor to a nearby acceptor.

A further assay deals with BCLXL WT (Homo sapiens (Human), UniProt Q07817). The assay is described as follows: TR-FRET competitive binding assay, BCLXL WT. To be noted: for Ki: BCLXL WT, Ki determined from IC50, read-out: TR_FRET EKI BclxL; for TR_FRET EKI BCLxL/WT selectivty ratio: ratio Ki BCLxL / Ki BCL2 WT. Summed up:
as §1

For a further assay, the system named is KMS-12-PE Bcl-2 WT. The experiment in a line: In vitro cytotoxicity CellTiter-Glo 48 h, KMS-12-PE Bcl-2 WT. The format is cell-based. To be noted: Homo sapiens, KMS-12-PE, C50 = concentration needed to reach 50% of the cellular viability. Summed up:
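CTG luminescence read-out; C50 = concentration reaching 50% cellular viability. Cells: KMS-12-PE expressing Bcl-2 WT or G101V (lentiviral, TagRFP-sorted). 11-pt curve, 48 h, 37 °C/5% CO2.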

Assay [1] deals with BCL2 G101V (Homo sapiens, UniProt P10415, G101V). The assay is described as follows: TR-FRET competitive binding assay, BCL2 G101V. Particulars: BCL2 G101V; Ki determined from IC50; read-out: TR_FRET EKI_Bcl2 G101V. Summed up:
as §1

Assay [2] deals with BCL2 G101V. The experiment in a line: TR-FRET competitive binding assay, BCL2 G101V. Particulars: ratio Ki BCL2 G101V / Ki BCL2 WT. More on the design: species or system human. Summed up: as §1
The next assay deals with BCL2 D103Y (Homo sapiens, UniProt P10415, D103Y). The assay is described as follows: TR-FRET competitive binding assay, BCL2 D103Y. Particulars: Ki determined from IC50, read-out: TR_FRET EKI_Bcl2 D103Y. Summed up:
as §1

BCLXL WT, sequence (Q07817 other isoform, or with tags, fused parts or gaps): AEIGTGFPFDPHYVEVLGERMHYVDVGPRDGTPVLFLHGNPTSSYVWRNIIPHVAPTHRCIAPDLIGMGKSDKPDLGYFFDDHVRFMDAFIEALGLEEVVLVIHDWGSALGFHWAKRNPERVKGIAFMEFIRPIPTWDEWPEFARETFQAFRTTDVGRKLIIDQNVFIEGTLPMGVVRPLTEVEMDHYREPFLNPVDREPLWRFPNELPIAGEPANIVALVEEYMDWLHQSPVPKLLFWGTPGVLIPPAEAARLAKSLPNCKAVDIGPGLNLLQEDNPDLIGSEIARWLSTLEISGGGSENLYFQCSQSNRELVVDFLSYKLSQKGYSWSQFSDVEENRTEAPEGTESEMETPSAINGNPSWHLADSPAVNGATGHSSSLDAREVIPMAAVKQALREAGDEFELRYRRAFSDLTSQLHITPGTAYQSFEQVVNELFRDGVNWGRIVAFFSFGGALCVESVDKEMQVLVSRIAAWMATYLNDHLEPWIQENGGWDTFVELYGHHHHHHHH

As to `COc1ncc(N(C(=O)c2cc(-c3cc4c(cc3C(=O)N3Cc5ccccc5C[C@H]3CN3CCCCC3)CN(C(=O)Cc3ccc(OCCN5CCOCC5)cc3F)CC4)n(C)c2C)c2ccc(O)cc2)cc1F` [Example 164, 5-[2-(2-{2-fluoro-4-[2-(morpholin-4-yl)ethoxy]phenyl}acetyl)-7-{[(3S)-3-(piperidin-1-ylmethyl)-3,4-dihydro-1H-isoquinolin-2-yl]carbonyl}-3,4-dihydro-1H-isoquinolin-6-yl]-N-(5-fluoro-6-methoxypyridin-3-yl)-N-(4-hydroxyphenyl)-1,2-dimethylpyrrole-3-carboxamide], the “Ratio (G101V/WT)” value with KMS-12-PE Bcl-2 G101V turned out to be 9.1529. Also, the figures for the IC50 in the assay on KMS-12-PE Bcl-2 G101V and with KMS-12-PE Bcl-2 WT were 0.0497 µM and 0.0054 µM, respectively. The Ki on BCL2 WT was 0.08 nM; at BCLXL WT, 9.3 nM; at BCL2 G101V [1] it was 0.6 nM; at BCL2 D103Y, 0.13 nM. For the same molecule, the “TR_FRET EKI BCLxL/WT selectivty ratio” value on BCLXL WT came to 120.8. For the same molecule, in the assay with BCL2 G101V [2], the “TR_FRET EKI G101V/WT selectivty ratio” value was determined as 7.5.

Turning to `Cc1c(N(C(=O)c2cc(-c3cc4c(cc3C(=O)N3Cc5ccccc5C[C@H]3CN3CCCC3)CN(C(=O)Cc3c(F)cc(OCCN5CCOCC5)cc3F)CC4)n(C)c2C)c2ccc(O)cc2)cc(C#N)n1C` [Example 171, N-(5-cyano-1,2-dimethyl-pyrrol-3-yl)-5-[2-[2-[2,6-difluoro-4-(2-morpholinoethoxy)phenyl]acetyl]-7-[(3S)-3-(pyrrolidin-1-ylmethyl)-3,4-dihydro-1H-isoquinoline-2-carbonyl]-3,4-dihydro-1H-isoquinolin-6-yl]-N-(4-hydroxyphenyl)-1,2-dimethyl-pyrrole-3-carboxamide], the “Ratio (G101V/WT)” value in the assay on KMS-12-PE Bcl-2 G101V came out at 4.7109. In addition, the half-inhibitory concentration (IC50) – broadly, the midpoint of a concentration-inhibition curve – in the assay with KMS-12-PE Bcl-2 G101V was 0.0603 µM; in the assay with KMS-12-PE Bcl-2 WT, 0.0128 µM. Besides, the Ki is 0.02 nM on BCL2 WT, 1.3 nM on BCLXL WT, 0.2 nM at BCL2 G101V [1] and 0.09 nM on BCL2 D103Y. The “TR_FRET EKI BCLxL/WT selectivty ratio” value at BCLXL WT is recorded as 61.9. Also, the “TR_FRET EKI G101V/WT selectivty ratio” value with BCL2 G101V [2] is on record as 7.1.

Take `CCN(C[C@@H]1Cc2ccccc2CN1C(=O)c1cc2c(cc1-c1cc(C(=O)N(c3ccc(O)cc3)c3cc(C#N)n(C)c3C)c(C)n1C)CCN(C(=O)Cc1ccc(OCCN3CCOCC3)cc1F)C2)C(C)C` [Example 155, N-(5-cyano-1,2-dimethylpyrrol-3-yl)-5-(7-{[(3S)-3-{[ethyl(isopropyl)amino]methyl}-3,4-dihydro-1H-isoquinolin-2-yl]carbonyl}-2-(2-{2-fluoro-4-[2-(morpholin-4-yl)ethoxy]phenyl}acetyl)-3,4-dihydro-1H-isoquinolin-6-yl)-N-(4-hydroxyphenyl)-1,2-dimethylpyrrole-3-carboxamide]: in the assay with KMS-12-PE Bcl-2 G101V, the “Ratio (G101V/WT)” value was determined as 8.0857. The IC50 in the assay with KMS-12-PE Bcl-2 G101V was found to be 0.0849 µM; in the assay with KMS-12-PE Bcl-2 WT, 0.0105 µM. Moreover, the Ki on BCL2 WT stood at 0.04 nM; at BCLXL WT it was 1.7 nM; at BCL2 G101V [1], 0.4 nM; at BCL2 D103Y, 0.11 nM. Also, the “TR_FRET EKI BCLxL/WT selectivty ratio” value on BCLXL WT amounted to 39.5. Also, the “TR_FRET EKI G101V/WT selectivty ratio” value with BCL2 G101V [2] is given as 8.8.

`Cc1c(N(C(=O)c2cc(-c3cc4c(cc3C(=O)N3Cc5ccccc5C[C@H]3CN3CCCC3)CN(C(=O)Cc3ccc(OCCN5CCN(CC(F)F)CC5)cc3)CC4)n(C)c2C)c2ccc(O)cc2)cc(C#N)n1C` [Example 154, N-(5-cyano-1,2-dimethylpyrrol-3-yl)-5-{2-[2-(4-{2-[4-(2,2-difluoroethyl)piperazin-1-yl]ethoxy}phenyl)acetyl]-7-{[(3S)-3-(pyrrolidin-1-ylmethyl)-3,4-dihydro-1H-isoquinolin-2-yl]carbonyl}-3,4-dihydro-1H-isoquinolin-6-yl}-N-(4-hydroxyphenyl)-1,2-dimethylpyrrole-3-carboxamide]: in the assay with KMS-12-PE Bcl-2 G101V, the “Ratio (G101V/WT)” value was 3.9552. Besides, the 50% inhibitory concentration (IC50) with KMS-12-PE Bcl-2 G101V amounted to 0.265 µM; with KMS-12-PE Bcl-2 WT it was 0.067 µM. Moreover, the Ki came to 0.04 nM on BCL2 WT, 4.1 nM on BCLXL WT, 0.3 nM on BCL2 G101V [1] and 0.14 nM on BCL2 D103Y. On BCLXL WT, the “TR_FRET EKI BCLxL/WT selectivty ratio” value amounted to 110.8. Moreover, in the assay on BCL2 G101V [2], the “TR_FRET EKI G101V/WT selectivty ratio” value turned out to be 8.4.

On to `Cc1c(N(C(=O)c2cc(-c3cc4c(cc3C(=O)N3Cc5ccccc5C[C@H]3C)CN(C(=O)Cc3ccc(OCCN5CC(F)C5)cc3)CC4)n(C)c2C)c2ccc(O)cc2)cc(C#N)n1C` [Example 49, N-(5-cyano-1,2-dimethyl-1H-pyrrol-3-yl)-5-[2-(2-{4-[2-(3-fluoroazetidin-1-yl)ethoxy]phenyl}acetyl)-7-[(3R)-3-methyl-1,2,3,4-tetrahydroisoquinoline-2-carbonyl]-1,2,3,4-tetrahydroisoquinolin-6-yl]-N-(4-hydroxyphenyl)-1,2-dimethyl-1H-pyrrole-3-carboxamide], for which, in the assay with KMS-12-PE Bcl-2 G101V, the “Ratio (G101V/WT)” value was 5.91. The figures for the IC50 with KMS-12-PE Bcl-2 G101V and in the assay on KMS-12-PE Bcl-2 WT were 0.0697 µM and 0.0118 µM, respectively. For the same molecule, the Ki on BCL2 WT is 0.1 nM; at BCLXL WT, 1.3 nM; at BCL2 G101V [1] it was 0.2 nM; on BCL2 D103Y, 0.17 nM. Also, the “TR_FRET EKI BCLxL/WT selectivty ratio” value at BCLXL WT is listed as 13.0. In addition, in the assay on BCL2 G101V [2], the “TR_FRET EKI G101V/WT selectivty ratio” value is 2.3.

For the molecule `Cc1c(N(C(=O)c2cc(-c3cc4c(cc3C(=O)N3Cc5ccccc5C[C@H]3C)CN(C(=O)Cc3ccc(OCCN5CCOCC5)cc3)CC4)n(C)c2C)c2ccc(O)cc2)cnn1C1CCOCC1` [Example 142, N-(4-hydroxyphenyl)-1,2-dimethyl-N-[5-methyl-1-(oxan-4-yl)pyrazol-4-yl]-5-(7-{[(3R)-3-methyl-3,4-dihydro-1H-isoquinolin-2-yl]carbonyl}-2-(2-{4-[2-(morpholin-4-yl)ethoxy]phenyl}acetyl)-3,4-dihydro-1H-isoquinolin-6-yl)pyrrole-3-carboxamide], in the assay on KMS-12-PE Bcl-2 G101V, the “Ratio (G101V/WT)” value amounted to 8.9744. Besides, the results for the IC50 with KMS-12-PE Bcl-2 G101V and in the assay with KMS-12-PE Bcl-2 WT were 1.4 µM and 0.156 µM, respectively. The Ki on BCL2 WT was found to be 0.13 nM; on BCLXL WT it was 8.1 nM; at BCL2 G101V [1], 1.3 nM; at BCL2 D103Y it was 0.31 nM. Moreover, the “TR_FRET EKI BCLxL/WT selectivty ratio” value on BCLXL WT is 62.3. The “TR_FRET EKI G101V/WT selectivty ratio” value with BCL2 G101V [2] is given as 10.0.

Regarding `Cc1c(C(=O)N(c2ccc(O)cc2)c2cc(C#N)n(C(F)F)c2C)cc(-c2cc3c(cc2C(=O)N2Cc4ccccc4C[C@H]2C)CN(C(=O)Cc2ccc(OCCN4CCOCC4)cc2)CC3)n1C` [Example 95, N-[5-cyano-1-(difluoromethyl)-2-methylpyrrol-3-yl]-N-(4-hydroxyphenyl)-1,2-dimethyl-5-(7-{[(3R)-3-methyl-3,4-dihydro-1H-isoquinolin-2-yl]carbonyl}-2-(2-{4-[2-(morpholin-4-yl)ethoxy]phenyl}acetyl)-3,4-dihydro-1H-isoquinolin-6-yl)pyrrole-3-carboxamide], in the assay with KMS-12-PE Bcl-2 G101V, the “Ratio (G101V/WT)” value was found to be 4.11. Also, the results for the half-maximal inhibitory concentration (IC50) with KMS-12-PE Bcl-2 G101V and in the assay on KMS-12-PE Bcl-2 WT were 0.0196 µM and 0.0048 µM, respectively. Besides, the Ki on BCL2 WT turned out to be 0.18 nM; at BCLXL WT, 3.9 nM; on BCL2 G101V [1], 0.6 nM; at BCL2 D103Y, 0.46 nM. Besides, the “TR_FRET EKI BCLxL/WT selectivty ratio” value on BCLXL WT turned out to be 21.7. In addition, the “TR_FRET EKI G101V/WT selectivty ratio” value in the assay with BCL2 G101V [2] was 3.2.
